This passage reports IC50 results from patent EP4722213A1, “NITROGEN-CONTAINING FUNCTIONAL GROUP-SUBSTITUTED PYRIDAZINOPYRIDONE DERIVATIVE AND USE THEREOF” (Sichuan Huiyu Pharmaceutical Co., Ltd., priority 2023, dated 2024).

As usually defined, the IC50 is the concentration needed to halve the response being measured. A high value points to lower potency.

Structures can show the parent of a compound that is named as a salt.

In this test the target is T1, SOS1 (Homo sapiens, UniProt Q07889).
T1 sequence (Q07889 1-1333): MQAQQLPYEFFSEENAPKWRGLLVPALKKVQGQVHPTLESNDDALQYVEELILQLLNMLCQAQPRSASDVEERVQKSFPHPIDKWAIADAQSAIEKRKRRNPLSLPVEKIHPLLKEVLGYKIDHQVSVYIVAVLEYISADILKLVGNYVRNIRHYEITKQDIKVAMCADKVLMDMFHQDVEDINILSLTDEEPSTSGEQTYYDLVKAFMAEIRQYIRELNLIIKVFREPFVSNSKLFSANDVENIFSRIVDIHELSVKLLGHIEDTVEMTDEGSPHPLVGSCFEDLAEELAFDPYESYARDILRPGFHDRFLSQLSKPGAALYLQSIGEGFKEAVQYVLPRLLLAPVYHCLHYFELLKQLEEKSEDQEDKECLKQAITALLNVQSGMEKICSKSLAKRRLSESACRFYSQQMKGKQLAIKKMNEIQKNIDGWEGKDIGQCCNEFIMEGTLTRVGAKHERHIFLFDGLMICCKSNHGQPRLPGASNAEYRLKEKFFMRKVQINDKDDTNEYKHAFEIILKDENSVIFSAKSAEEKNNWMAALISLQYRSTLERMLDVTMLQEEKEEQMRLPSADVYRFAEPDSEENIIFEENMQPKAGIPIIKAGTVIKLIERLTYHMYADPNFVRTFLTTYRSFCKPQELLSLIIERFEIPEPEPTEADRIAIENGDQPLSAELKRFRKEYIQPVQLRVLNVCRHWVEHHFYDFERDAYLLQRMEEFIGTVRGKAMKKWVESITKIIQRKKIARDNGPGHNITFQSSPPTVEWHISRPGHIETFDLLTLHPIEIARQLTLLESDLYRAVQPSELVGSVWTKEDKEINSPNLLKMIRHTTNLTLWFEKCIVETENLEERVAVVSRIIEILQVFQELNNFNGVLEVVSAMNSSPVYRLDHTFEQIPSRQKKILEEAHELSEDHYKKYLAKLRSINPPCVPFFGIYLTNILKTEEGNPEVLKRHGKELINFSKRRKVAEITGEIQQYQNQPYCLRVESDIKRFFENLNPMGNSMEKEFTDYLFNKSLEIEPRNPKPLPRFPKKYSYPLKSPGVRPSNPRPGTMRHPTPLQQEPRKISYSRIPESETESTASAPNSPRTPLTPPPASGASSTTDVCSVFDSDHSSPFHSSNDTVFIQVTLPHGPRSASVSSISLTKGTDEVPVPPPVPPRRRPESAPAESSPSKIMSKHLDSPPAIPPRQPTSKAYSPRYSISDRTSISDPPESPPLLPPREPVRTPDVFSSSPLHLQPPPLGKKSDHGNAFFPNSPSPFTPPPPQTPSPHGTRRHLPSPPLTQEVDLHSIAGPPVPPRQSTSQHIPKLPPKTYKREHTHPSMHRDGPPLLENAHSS
Nature of the test: biochemical.
Turning to `C[C@@H](Nc1nnc(N2CCC(CO)C2)c2cc(=O)n(C3(C)CC3)cc12)c1cccc(C(F)F)c1F` (stereo partly drawn) [Example 128, 4-(((R)-1-(3-(difluoromethyl)-2-fluorophenyl)ethyl)amino)-1-(3-(hydroxymethyl)pyrrolidin-1-yl)-6-(1-methylcyclopropyl) pyrido[3,4-d]pyridazin-7(6H)-one], the half-inhibitory concentration (IC50) stood at 4.2 nM. For the compound `C[C@@H](Nc1nnc(N2CCN(CC3CC3)CC2)c2cc(=O)n(N3CCN(C)CC3)cc12)c1cccc(C(F)F)c1F` [Example 154, (R)-1-(4-(cyclopropylmethyl)piperazin-1-yl)-4-((1-(3-(difluoromethyl)-2-fluorophenyl)ethyl)amino)-6-(4-methylpiperazin-1-yl)pyrido[3,4-d]pyridazin-7(6H)-one], the IC50 was 5.4 nM. In turn, `C[C@@H](Nc1nnc(N2CCN(C3CCCC3)CC2)c2cc(=O)n(C3(C)CC3)cc12)c1cccc(C(F)(F)F)c1F` [Example 171, (R)-4-((1-(2-fluoro-3-(trifluoromethyl)phenyl)ethyl)amino)-1-(4-cyclopentylpiperazin-1-yl)-6-(1-methylcyclopropyl) pyrido[3,4-d]pyridazin-7(6H)-one] gave an IC50 of 5 nM.

The compound `CCN(CC)c1nnc(N[C@H](C)c2cccc(C(F)F)c2F)c2cn(C3(C)CC3)c(=O)cc12` [Example 29, (R)-1-(diethylamino)-4-(((R)1-(3-(difluoromethyl)-2-fluorophenyl)ethyl)amino)-6-(1-methylcyclopropyl) pyrido[3,4-d]pyridazin-7(6H)-one] displayed an IC50 of 10.6 nM.

`C[C@@H](Nc1nnc(N2CC[C@H](CO)C2)c2cc(=O)n(C3(C)CC3)cc12)c1cccc(C(F)(F)F)c1` [Example 179, 1-((S)-3-(hydroxymethyl)pyrrolidin-1-yl)-6-(1-methylcyclopropyl)-4-(((R)-1-(3-(trifluoromethyl)phenyl)ethyl)amino)pyr ido[3,4-d]pyridazin-7(6H)-one formate] gave an IC50 of 6.4 nM. Compound `C[C@@H](Nc1nnc(N2CCC(F)(F)C2)c2cc(=O)n(C3CC3)cc12)c1cccc(C(F)F)c1F` [Example 14, (R)-6-cyclopropyl-4-((1-(3-(difluoromethyl)-2-fluorophenyl)ethyl)amino)-1-(3,3-difluoropyrrolidin-1-yl)pyrido[3,4-d]pyridazin-7(6H)-one] came in with an IC50 of 17.6 nM.

`Cc1c(C(F)F)cccc1[C@@H](C)Nc1nnc(N2CCN(C3CC3)CC2)c2cc(=O)n(C3CC3)cc12` [Example 212, (R)-6-cyclopropyl-1-(4-cyclopropylpiperazin-1-yl)-4-((1-(3-(difluoromethyl)-2-methylphenyl)ethyl)amino)pyrido[3,4-d]pyridazin-7(6H)-one] returned an IC50 of 11.9 nM.

Compound `C[C@@H](Nc1nnc(N2CCN(C3CCC3)CC2)c2cc(=O)n(C3(C)CC3)cc12)c1cccc(C(F)(F)F)c1F` [Example 173, (R)-4-((1-(2-fluoro-3-(trifluoromethyl)phenyl)ethyl)amino)-1-(4-cyclobutylpiperazin-1-yl)-6-(1-methylcyclopropyl) pyrido[3,4-d]pyridazin-7(6H)-one] had a 50% inhibitory concentration (IC50) of 5.3 nM.

`C[C@@H](Nc1nnc(N2CCN(C3CCCC3)CC2)c2cc(=O)n(N3CC4CCCC4C3)cc12)c1cccc(C(F)F)c1F` (stereo partly drawn) [Example 140, 4-(((R)-1-(3-(difluoromethyl)-2-fluorophenyl)ethyl)amino)-6-(hexahydrocyclopenta[c]pyrrol-2(1H)-yl)-1-(4-cyclopentylpiperazin-1-yl)-pyrido[3,4-d]pyridazin-7(6H)-one] returned a half-inhibitory concentration (IC50) of 8.5 nM. Compound `C[C@@H](Nc1nnc(-n2cncn2)c2cc(=O)n(C3CC3)cc12)c1cccc(C(F)F)c1F` [Example 1, (R)-6-cyclopropyl-4-((1-(3-(difluoromethyl)-2-fluorophenyl)ethyl)amino)-1-(1H-1,2,4-triazol-1-yl) pyrido[3,4-d]pyridazin-7(6H)-one] registered an IC50 of 13.5 nM. In turn, `C[C@@H](Nc1nnc(N(C)C2CC2)c2cc(=O)n(C3(C)CC3)cc12)c1cccc(C(F)F)c1F` [Example 225, (R)-1-(cyclopropyl(methyl)amino)-4-((1-(3-(difluoromethyl)-2-fluorophenyl)ethyl)amino)-6-(1-methylcyclopropyl) pyrido[3,4-d]pyridazin-7(6H)-one] yielded an IC50 of 7.6 nM. With `C[C@@H](Nc1nnc(NCC(F)F)c2cc(=O)n(C3(C)CC3)cc12)c1cccc(C(F)F)c1F` [Example 134, (R)-1-((2,2-difluoroethyl)amino)-4-((1-(3-(difluoromethyl)-2-fluorophenyl)ethyl)amino)-6-(1-methylcyclopropyl) pyrido[3,4-d]pyridazin-7(6H)-one] the figure was 9.5 nM.

As for `C[C@@H](Nc1nnc(N2CCN(C)CC2)c2cc(=O)n(C3(C)CC3)cc12)c1cccc(C(F)(F)CO)c1` [Example 226, (R)-4-((1-(3-(1,1-difluoro-2-hydroxyethyl)phenyl)ethyl)amino)-6-(1-methylcyclopropyl)-1-(4-methylpiperazin-1-yl)pyrido[3,4-d]pyridazin-7(6H)-one], half-maximal inhibition (IC50) required 4.3 nM.

The compound `CCN1CCN(c2nnc(N[C@H](C)c3cc(N)cc(C)c3F)c3cn(C4(C)CC4)c(=O)cc23)CC1` [Example 160, (R)-4-((1-(5-amino-2-fluoro-3-methylphenyl)ethyl)amino)-1-(4-ethylpiperazin-1-yl)-6-(1-methylcyclopropyl) pyrido[3,4-d]pyridazin-7(6H)-one formate] gave a half-inhibitory concentration (IC50) of 5.7 nM.

`Cc1c(C#N)cccc1[C@@H](C)Nc1nnc(N2CCC(F)(F)C2)c2cc(=O)n(C3(C)CC3)cc12` [Example 69, (R)-3-(1-((1-(3,3-difluoropyrrolidin-1-yl)-6-(1-methylcyclopropyl)-7-oxo-6,7-dihydropyrido[3,4-d]pyridazin-4-yl)amino)ethyl)-2-methylbenzonitrile] showed an IC50 of 34.2 nM. Take `Cc1c([C@@H](C)Nc2nnc(N3CCN(CC4CC4)CC3)c3cc(=O)n(C4(C)CC4)cc23)cccc1C(F)(F)F` [Example 93, (R)-1-(4-(cyclopropylmethyl)piperazin-1-yl)-4-((1-(2-methyl-3-(trifluoromethyl)phenyl)ethyl)amino)-6-(1-methylcyclopropyl) pyrido[3,4-d]pyridazin-7(6H)-one]: the IC50 is 5.4 nM.

On to `C[C@@H](Nc1nnc(NC2CCN(C)CC2)c2cc(=O)n(C3(C)CC3)cc12)c1cccc(C(F)F)c1F` [Example 123, (R)-4-((1-(3-(difluoromethyl)-2-fluorophenyl)ethyl)amino)-6-(1-methylcyclopropyl)-1-((1-methylpiperidin-4-yl)amino)pyrido[3,4-d]pyridazin-7(6H)-one formate], for which the 50% inhibitory concentration (IC50) was found to be 3.8 nM. Compound `C[C@@H](Nc1nnc(N2CCC(CO)C2)c2cc(=O)n(C3(C)CC3)cc12)c1cccc(C(F)(F)CO)c1` (stereo partly drawn) [Example 228, 4-(((R)-1-(3-(1,1-difluoro-2-hydroxyethyl)phenyl)ethyl)amino)-1-(3-(hydroxymethyl)pyrrolidin-1-yl)-6-(1-methylcyclopropyl) pyrido[3,4-d]pyridazin-7(6H)-one] yielded an IC50 of 4.4 nM. With `C[C@@H](Nc1nnc(N2CCN(C3CC3)CC2)c2cc(=O)n(N3CC4CCCC4C3)cc12)c1cccc(C(F)F)c1F` (stereo partly drawn) [Example 142, 4-(((R)-1-(3-(difluoromethyl)-2-fluorophenyl)ethyl)amino)-6-(hexahydrocyclopenta[c]pyrrol-2(1H)-yl)-1-(4-cyclopropylpiperazin-1-yl)-pyrido[3,4-d]pyridazin-7(6H)-one] the figure was 10.6 nM; with `Cc1c([C@@H](C)Nc2nnc(N3CCC[C@H]3C)c3cc(=O)n(C4(C)CC4)cc23)cccc1C(F)(F)F` [Example 63, 4-(((R)-1-(2-methyl-3-(trifluoromethyl)phenyl)ethyl)amino)-6-(1-methylcyclopropyl)-1-((R)-2-methylpyrrolidin-1-yl)pyrido[3,4-d]pyridazin-7(6H)-one], 7.8 nM; with `C[C@@H](Nc1nnc(N2CCC3(CC3)C2)c2cc(=O)n(C3(C)CC3)cc12)c1cccc(C(F)F)c1F` [Example 187, (R)-4-((1-(3-(difluoromethyl)-2-fluorophenyl)ethyl)amino)-6-(1-methylcyclopropyl)-1-(5-azaspiro[2.4]heptan-5-yl)pyrido[3,4-d]pyridazin-7(6H)-one], 4.8 nM.
